This experiment has as its system men with clinical BPH. The experiment in a line: four-year, double-blind placebo-controlled study of finasteride in men with clinical BPH (acute urinary retention and BPH-related surgery outcomes). It is filed as in vivo, human. The following applies: for risk of AUR or BPH-related surgery / finasteride-related reduction of risk (AUR or surgery): 4 years; for finasteride-related reduction of risk (AUR or surgery): versus placebo. On the procedure:
A total of 3040 men with clinical BPH diagnosed on the basis of moderate-to-severe symptoms, a decreased peak urinary flow rate (less than 15 mL/sec with a voided volume of 150 mL or more) and an enlarged prostate gland by digital rectal examination (DRE) were enrolled in a four-year study comparing finasteride with placebo. Men receiving alpha blocking agents or antiandrogens, and men with a history of chronic prostatitis, recurrent urinary tract infections, prostate or bladder cancer or surgery, or a serum PSA over 10 ng/mL were excluded. Men with serum PSA concentrations between 4.0 and 9.9 ng/mL had to have a negative prostate biopsy prior to enrollment.
After a one-month single-blind placebo lead-in, men were randomly assigned to receive placebo or 5 mg of finasteride (17β-(N-tert-butylcarbamoyl)-3-oxo-4-aza-5α-androst-1-en-3-one) daily in a four year, double-blind placebo-controlled study. BPH-related outcomes including symptoms, bothersomeness, adverse events and urinary flow rates, were assessed every 4 months. Serum PSA was measured every 4 months in the first year and then every 8 months at a central laboratory. Physical examination and routine hematological and serum chemistry tests were performed yearly. Magnetic resonance imaging (MRI) was performed at baseline and subsequently yearly in a subset of 10% of patients. All MRI images were read by a central radiologist blinded to treatment allocation and time of imaging.
Acute urinary retention (AUR) and surgery for BPH were predefined secondary end-points. The endpoint committee, blinded to treatment group, reviewed all study-related documents related to episodes of acute urinary retention, and all prostate surgeries for BPH, excluding surgery for prostate cancer. The endpoint committee classified episodes of AUR as spontaneous versus precipitated (when contributing factors such as urinary tract infection, surgery anesthesia, ingestion of alpha sympathomimetic drugs or anticholinergics were identified).
Complete data on outcomes, including four-year follow-up information for men who had discontinued treatment, were available for 92% of the men randomized. In the other 8%, complete information was available until discontinuation of the medication or up to the 6-month follow-up assessment after discontinuation.
The effect of baseline serum PSA on the risk of BPH-related outcomes (developing AUR and need for BPH-related surgery), were assessed by dividing patients into tertiles of baseline serum PSA, and calculating the risk of developing an outcome by time-to-first event analysis as well as Fisher's exact test for cumulative incidence. The finasteride-related reduction in risk over 4 years was calculated using log rank analyses. All statistical tests were two-sided and a p-value of <0.05 accepted as significant.
The measurement characteristics of baseline in prediction of BPH-related outcomes were evaluated using receiver operating characteristic (ROC) curves. The area under the ROC curve (AUC) for a given population is given by the probability that a randomly chosen individual in the affected population has a higher value of the index (in this case PSA) than a randomly chosen individual in the non-affected population. The AUC's were computed using the method of Hanley and McNeil. Differences between AUC's in the finasteride and placebo group were tested using normal statistics with standard deviations computed by the same method.

[1] abbreviates: 5 mg daily, four years, all patients.
The mark [2] stands for this setting: lowest tertile of serum PSA (0.0-1.3 ng/mL).
Where [3] appears, read: second tertile (serum PSA 1.4-3.2 ng/mL).

Entries after “also recorded” stand apart in the source; their conditions may differ.

The values below come from patent US20030069264A1, “METHOD OF DETERMINING AND REDUCING THE RISK OF BPH-RELATED UROLOGIC EVENTS” (priority 1998, published 2003).

As for `CC(C)(C)NC(=O)[C@H]1CC[C@H]2[C@@H]3CC[C@H]4NC(=O)C=C[C@]4(C)[C@H]3CC[C@]12C` [finasteride, 17β-(N-tert-butylcarbamoyl)-3-oxo-4-aza-5α-androst-1-en-3-one], under setting [1], the “incidence of BPH-related surgery” value was determined as 5%, the “incidence of precipitated AUR” value was found to be 2% and the “incidence of spontaneous AUR” value came out at 1%. The “overall incidence of acute urinary retention” value (5 mg finasteride daily, four years, all patients) was 4%. The “decrease of the risk of developing a BPH-related outcome” value (all subgroups examined) is “approximately half”. Also, the “increase of cumulative incidence of spontaneous AUR with increasing baseline serum PSA” value (finasteride-treated patients, four years, FIG. 1) is reported as “nearly absent; also recorded: the risk remains unchanged over the entire serum PSA spectrum”. Also, under “finasteride-treated patients, four years, FIG. 2”, the “increase of cumulative incidence of all AUR (spontaneous and precipitated combined) with increasing baseline serum PSA” value is “nearly absent”. The “increase of cumulative incidence of BPH-related surgery across baseline PSA values” (finasteride-treated patients, four years, FIG. 3) was “increases only in finasteride-treated patients in men with a baseline PSA above 5.0 ng/mL”. In addition, the “risk of AUR or BPH-related surgery” value (highest tertile of baseline serum PSA) stood at 8.3%. Moreover, under “lowest tertile of baseline serum PSA”, the “risk of AUR or BPH-related surgery” value turned out to be 4.4%. For the same compound, under setting [2], the “4-year relative risk for finasteride versus placebo-treated patients” value is 0.57, the “benefit of finasteride over placebo in the first two years (risk of AUR or surgery)” value is “minimal; also recorded: no apparent benefit” and the “finasteride-related reduction of risk (AUR or surgery)” value (“finasteride-related reduction of risk” below) is given as 43%. Under setting [3], the “4-year relative risk for finasteride versus placebo-treated patients” value is recorded as 0.54 and the “finasteride-related reduction of risk” value is on record as 46%. Also, where the note is “third tertile of serum PSA (3.3-12 ng/mL)”, the “4-year relative risk for finasteride versus placebo treated patients” value was 0.40. The “finasteride-related reduction of risk” value (third/highest tertile of serum PSA (3.3-12 ng/mL)) amounted to 60%.
